Test systems include SNB-19 CNS; HS 578T breast; NCI/ADR-RES ovarian; CCRF-CEM leukemia; K-562 leukemia; UO-31 renal; BT-549 breast; RXF 393 renal; SF-539 CNS; HOP-62 NSCLC.
Experiment in all cases: DTP human tumour cell line panel, 48 h

Drawing on PubChem BioAssay (NCI), this text covers GI50 and TGI for seven compounds.

SMILES strings stand for the structures. Several values for one entry are separate records, joined by “and”; a condition that tells them apart may be missing. Equal values may be shown once.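 Assay format: 96-well plates, 48-hour exposure. At the GI50, growth is halved. TGI denotes the concentration required for complete inhibition of growth.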 Where only a bound is given, the exact number is not on record here.

As to `CN(C)CCCNC(=O)c1cncnc1Nc1ccc(OCc2cccc(F)c2)c(Cl)c1`, the GI50 with SNB-19 CNS is 1.72 µM; in the assay with HS 578T breast, 1.56 µM; in the assay on NCI/ADR-RES ovarian it was 1.89 µM; in the assay with CCRF-CEM leukemia, 1.82 µM; in the assay with K-562 leukemia it was 1.74 µM; in the assay with UO-31 renal, 1.46 µM. Further, the GI50 in the assay on BT-549 breast is 1.59 µM; with RXF 393 renal it was 1.51 µM; with SF-539 CNS it was 1.77 µM; in the assay with HOP-62 NSCLC, 1.75 µM. Also, the TGI is 3.11 µM in the assay on SNB-19 CNS; 3.3 µM with HS 578T breast; 3.77 µM in the assay on NCI/ADR-RES ovarian; 3.94 µM in the assay on CCRF-CEM leukemia; 3.73 µM with K-562 leukemia; 2.77 µM in the assay with UO-31 renal. Moreover, the TGI with BT-549 breast was determined as 3.06 µM; in the assay with RXF 393 renal, 2.87 µM; with SF-539 CNS it was 3.15 µM; in the assay with HOP-62 NSCLC, 3.48 µM.
As to `COc1cc(-c2ncn(/C=C\C(=O)OC(C)C)n2)cc(C(F)(F)F)c1`, the GI50 with SNB-19 CNS is 0.142 µM and 0.253 µM; with HS 578T breast, 0.254 µM and 0.243 µM; in the assay with NCI/ADR-RES ovarian, 0.0658 µM and 0.0944 µM; in the assay with CCRF-CEM leukemia, 0.0362 µM and 0.0446 µM; in the assay on K-562 leukemia, 0.051 µM and 0.0608 µM; with UO-31 renal, 0.0569 µM and 0.0489 µM. The GI50 with BT-549 breast is 0.0351 µM and 0.0343 µM; in the assay with RXF 393 renal, < 0.0139 µM and 0.0146 µM; in the assay with SF-539 CNS, 0.0146 µM and 0.018 µM; in the assay on HOP-62 NSCLC it was 0.295 µM and 0.262 µM. Moreover, the TGI in the assay on SNB-19 CNS is 13.5 µM and 14.9 µM; in the assay on HS 578T breast, > 65.9 µM and 6.71 µM; in the assay on NCI/ADR-RES ovarian, 11.5 µM and 12.7 µM; with CCRF-CEM leukemia, 36.1 µM and 12.5 µM; in the assay with K-562 leukemia, 10.2 µM and 16.2 µM; in the assay on UO-31 renal, 4.18 µM and 11.7 µM. Further, the TGI is 1.03 µM and 1.69 µM in the assay with BT-549 breast; 0.0824 µM and 0.0725 µM in the assay on RXF 393 renal; 0.225 µM and 0.187 µM with SF-539 CNS; 3.46 µM and 3.94 µM in the assay on HOP-62 NSCLC.
Turning to `C=CN(C)S(C)(=O)=O`, the GI50 in the assay on SNB-19 CNS, in the assay with HS 578T breast, in the assay with NCI/ADR-RES ovarian, in the assay on CCRF-CEM leukemia, in the assay with K-562 leukemia and in the assay on UO-31 renal was > 100 µM each time. Further, the GI50 with BT-549 breast, in the assay with RXF 393 renal, with SF-539 CNS and in the assay with HOP-62 NSCLC was > 100 µM each time. For the same compound, the TGI in the assay on SNB-19 CNS, in the assay with HS 578T breast, with NCI/ADR-RES ovarian, in the assay with CCRF-CEM leukemia, with K-562 leukemia and in the assay with UO-31 renal was > 100 µM throughout. Besides, the TGI with BT-549 breast, with RXF 393 renal, with SF-539 CNS and in the assay with HOP-62 NSCLC was > 100 µM in each case.
`C=C1C(=O)O[C@@H]2C1C[C@@H](O)C(=C)CC/C=C(\C)CCC[C@H](C)[C@H]2OC(C)=O` (stereo not given in full): the GI50 in the assay on SNB-19 CNS was 27.1 µM; in the assay with HS 578T breast, 10.3 µM; with NCI/ADR-RES ovarian, 3.38 µM; in the assay on CCRF-CEM leukemia, 2.34 µM; in the assay on K-562 leukemia, 2.8 µM; with UO-31 renal, 5.18 µM. Besides, the GI50 with BT-549 breast is 2.73 µM; with RXF 393 renal, 4.15 µM; in the assay with SF-539 CNS it was 12.8 µM; in the assay with HOP-62 NSCLC, 15.4 µM. The TGI with SNB-19 CNS is > 100 µM; in the assay with HS 578T breast, 27.7 µM; in the assay on NCI/ADR-RES ovarian it was 14.2 µM; with CCRF-CEM leukemia, 5.05 µM; with K-562 leukemia it was 7.76 µM; in the assay with UO-31 renal, 18.4 µM. In addition, the TGI with BT-549 breast was 7.46 µM; in the assay with RXF 393 renal, 20.9 µM; in the assay on SF-539 CNS, 26.3 µM; in the assay with HOP-62 NSCLC, 30.7 µM.
As for `COc1cnc2c(c1)C(=O)c1c-2n(CCCNC(C)C)c(=O)c2cc(F)ccc12`, the GI50 in the assay on SNB-19 CNS is 0.179 µM; with HS 578T breast it was 0.754 µM; in the assay on NCI/ADR-RES ovarian, 0.234 µM; in the assay on CCRF-CEM leukemia, 0.111 µM; in the assay with K-562 leukemia, 0.129 µM; in the assay with UO-31 renal, 0.0801 µM. Also, the GI50 was 0.655 µM in the assay on BT-549 breast, 0.23 µM with RXF 393 renal, 0.245 µM in the assay with SF-539 CNS and 0.107 µM in the assay with HOP-62 NSCLC. The concentration for total growth inhibition (TGI) was 1.32 µM in the assay with SNB-19 CNS; 5.22 µM in the assay on HS 578T breast; 1.81 µM in the assay on NCI/ADR-RES ovarian; 10.7 µM with CCRF-CEM leukemia; 1.72 µM with K-562 leukemia; 0.34 µM with UO-31 renal. Moreover, the TGI was 4.09 µM in the assay on BT-549 breast, 0.702 µM in the assay with RXF 393 renal, 0.703 µM in the assay on SF-539 CNS and 0.427 µM in the assay on HOP-62 NSCLC.
For the compound `N#CC1=C(N)NC(=S)NC12Nc1ccccc1N2`, the GI50 in the assay with SNB-19 CNS is 90.1 µM; with HS 578T breast, 68.9 µM; in the assay on NCI/ADR-RES ovarian, 46.8 µM; in the assay on CCRF-CEM leukemia, 18.2 µM; in the assay on K-562 leukemia, 28.1 µM; in the assay on UO-31 renal, 55.2 µM. Also, the GI50 in the assay on BT-549 breast is 33.1 µM; with RXF 393 renal it was > 100 µM; in the assay on SF-539 CNS it was 42.4 µM; in the assay with HOP-62 NSCLC it was 55.5 µM. Besides, the TGI in the assay with SNB-19 CNS, in the assay with HS 578T breast, in the assay with NCI/ADR-RES ovarian, in the assay on CCRF-CEM leukemia, in the assay on K-562 leukemia and in the assay on UO-31 renal was > 100 µM in each case. Also, the TGI is 91.2 µM in the assay on BT-549 breast, > 100 µM in the assay with RXF 393 renal, > 100 µM in the assay with SF-539 CNS and > 100 µM in the assay on HOP-62 NSCLC.
`CC1=C([Te]c2ccc(O)cc2)C(=O)c2ccccc2C1=O`: the GI50 with SNB-19 CNS is 2.8 µM; in the assay with HS 578T breast it was 1.83 µM; with NCI/ADR-RES ovarian it was 2.42 µM; in the assay on CCRF-CEM leukemia, 0.806 µM; in the assay with K-562 leukemia it was 1.93 µM; in the assay with UO-31 renal it was 1.56 µM. In addition, the GI50 in the assay with BT-549 breast was 0.448 µM; in the assay with RXF 393 renal, 2.42 µM; in the assay on SF-539 CNS it was 1.8 µM; with HOP-62 NSCLC, 0.9 µM. In addition, the TGI is 10.7 µM in the assay with SNB-19 CNS; 7.6 µM in the assay on HS 578T breast; 8.3 µM in the assay on NCI/ADR-RES ovarian; 4.38 µM in the assay on CCRF-CEM leukemia; 4.36 µM in the assay on K-562 leukemia; 4.98 µM in the assay on UO-31 renal. For the same compound, the TGI was 4.22 µM in the assay with BT-549 breast, 9.46 µM in the assay with RXF 393 renal, 4.23 µM in the assay on SF-539 CNS and 5.15 µM in the assay with HOP-62 NSCLC.

As a reminder, the GI50 is the concentration that inhibits growth by half. In general, TGI refers to the concentration at which net growth stops.
